# Where two headings read alike, the source gives them in different places.
# Tests used:
# [1] = cited from earlier work
# [2] = cited from earlier work; remark: listed apart in the source
# [3] = tested on: patients with BRAF^V600 mutation-positive, unresectable locally advanced or metastatic melanoma
# Excerpt: This multicenter study has 2 stages: a dose-escalation stage and a cohort-expansion stage.
# Key inclusion criteria include the presence of the V600E mutation in melanoma tumor tissue using the Cobas® 4800 BRAF V600 mutation test, measurable disease per Response Evaluation Criteria in Solid Tumors (RECIST) v1.1, ECOG PS of ≤1, and adequate hematologic and end organ function as assessed through key laboratory measures. Patients were excluded if they had: ocular pathology or risk factors that predisposes to retinal vein occlusion; QTc>450 ms; or active CNS metastasis. Patients treated with stereotactic radiation therapy or surgery were eligible if stable for >3 weeks prior to treatment.
# Each treatment cycle was 28 days.
# Dose-escalation used the standard 3+3 design and proceeded in increments, taking into account the safety and tolerability of the combination.
# Eligible patients had BRAF^V600-mutated unresectable or metastatic melanoma, and ECOG PS 0-1. Patients were either naïve to vemurafenib or had disease progression on vemurafenib. The study consisted of dose-escalation and expansion stages. […] Primary endpoints were maximum tolerated dose (MTD), dose-limiting toxicity (DLT) of both drugs, safety, and PK.
# [4] = tested on: unresectable or metastatic melanoma that is BRAFV600E mutation-positive; conditions: cited from earlier work
# [5] = during combination treatment, as of 6 Jul. 2012
# [6] = compared with dacarbazine (Chapman et al. 2011)
structure (smiles),measurement,setting,value
"O=C(c1ccc(F)c(F)c1Nc1ccc(I)cc1F)N1CC(O)([C@@H]2CCCCN2)C1 [GDC-0973, [3,4-difluoro-2-[(2-fluoro-4-iodophenyl)amino]phenyl][3-hydroxy-3-[(2S)-2-piperidinyl]-1-azetidinyl]methanone]",single-agent MTD,[1]; 21/7 schedule,60 mg
"CCCS(=O)(=O)Nc1ccc(F)c(C(=O)c2c[nH]c3ncc(-c4ccc(Cl)cc4)cc23)c1F [vemurafenib, propane-1-sulfonic acid {3-[5-(4-chlorophenyl)-1H-pyrrolo[2,3-b]pyridine-3-carbonyl]-2,4-difluoro-phenyl}-amide]",dissolution rate of the amorphous form as compared to the crystalline form,[2],improved dissolution rate
same,solubility in water of the amorphous form as compared with the crystalline form,[2],greater solubility in water
same,dose-limiting toxicity event,"[3]; cohort 1 (vemurafenib 720 mg BID+GDC-0973 60 mg QD 14/14), led to discontinuation of vemurafenib",Grade 3 QT prolongation
same,dose-limiting toxicity event,[3]; cohort 1D,Grade 3 arthralgia
same,discontinuation of the drug because of QT interval prolongation,[3]; [5],1 patient
same,primary dose reduction of the drug because of LFT abnormality,[3]; [5],1 patient
same,primary dose reduction of the drug because of central serous retinopathy,[3]; [5],1 patient
same,primary dose reduction of the drug because of rash,[3]; [5],1 patient
same,temporary interruption of the drug because of arthralgia,[3]; [5],3 patients
same,temporary interruption of the drug because of liver function test (LFT) abnormalities,[3]; [5],3 patients
same,temporary interruption of the drug because of rash,[3]; [5],8 patients
same,response rates,"[4]; Flaherty 2010, Chapman 2011, Sosman 2012",greater than 50%
same,decrease in the risk of disease progression or death,[4]; [6],74%
same,reduction in the risk of death,[4]; [6],63%
same,single-agent MTD,[1]; in vivo,960 mg BID

# — patent US12354130B2, “Combination therapies” (Genentech, Inc., priority 2012, dated 2025)
